How the values were obtained:
[1] = TEM, cryo-TEM and AFM of the self-assembled micro-nano structure; format: physicochemical
Experimental: Taking the self-assembled micro-nano structure of Compound II-1 as an example, II-1 was dissolved in DMSO (also can be an organic solvent such as ethanol) to prepare a 2 mM storage solution, and a small amount of storage solution was added to deionized water to prepare 20 μM working solution. Took 10 μL and dropped it on copper mesh, observed and analyzed under transmission electron microscope (TEM), cryo-transmission electron microscope. Took 10 μL and dropped it on mica plate, observed and analyzed under atomic force microscope (AFM). In FIGS. 5, A, B, C and D were TEM photographs, cryo-transmission electron microscope photographs, AFM photographs, and AFM analysis data, respectively. According to the photographs and data, II-1 was self-assembled into nanosheets with a diameter of 40-70 nm and a thickness of 3.7-3.9 nm. […]

4T1 cells = experiment: Fluorescence imaging in subcutaneous metastasis model mice; format: in vivo, nude mice; conditions: 200 μL (1 mg/mL) tail vein
Experimental: The left side of 6-week-old female nude mice was injected subcutaneously with […] 4T1 cells to grow the tumor volume to 60 mm^3.
In the experimental group, 200 μL of II-1 (1 mg/mL) was injected into the tail vein of mice. After injection, the living imager was used to monitor at different times. […] Then they were dissected, and the heart, liver, spleen, lung, kidney and tumor were imaged by fluorescence. […] This proves that Compound II-1 targets the tumor site very well.

[2] = 20 μM in deionized water, TEM/AFM

SMILES: CCN1C(=CC=C2CCCC(C=CC3=C(C#N)C(=C(C#N)C#N)OC3(C)C)=C2Cl)C(C)(C)c2ccccc21 [II-1]
- nanosheet diameter [1, 2]: 40-70 nm
- nanosheet thickness [1, 2]: 3.7-3.9 nm
- Morphology ([1]; micro-nano structure in aqueous solution, AFM and TEM): nano-sheet
- whole-body fluorescence distribution (4T1 cells; after 24 hours): all enriched in the tumor site
- fluorescence of dissected heart, liver, spleen, lung, kidney and tumor (4T1 cells; dissected after 24 hours): the fluorescence was very strong at tumor site, with weak fluorescence in the liver, and no fluorescence in other parts
- abnormalities in nude mice (4T1 cells; within 24 hours): no abnormalities such as spasms and convulsions occurred

From patent US20220105183A1, “MICRO-NANO STRUCTURE FORMED BY SELF-ASSEMBLING ORGANIC SMALL MOLECULE COMPOUND AND USE THEREOF” (Qingdao University of Science and Technology, priority 2018, published 2022)
